Calls of active or inactive are those of the source. Rule as the data show it: actives have a measured IC50 and inactives only a lower limit.
target: Envelope glycoprotein gp160 (Human immunodeficiency virus 1, UniProt Q6QLK5); assay: cell-free HIV fusion peptide-binding blockers – biochemical, uHTS, fluorescence dequenching, […] (AID 1986)
Sequence (Q6QLK5 whole entry, the tested form may be a part): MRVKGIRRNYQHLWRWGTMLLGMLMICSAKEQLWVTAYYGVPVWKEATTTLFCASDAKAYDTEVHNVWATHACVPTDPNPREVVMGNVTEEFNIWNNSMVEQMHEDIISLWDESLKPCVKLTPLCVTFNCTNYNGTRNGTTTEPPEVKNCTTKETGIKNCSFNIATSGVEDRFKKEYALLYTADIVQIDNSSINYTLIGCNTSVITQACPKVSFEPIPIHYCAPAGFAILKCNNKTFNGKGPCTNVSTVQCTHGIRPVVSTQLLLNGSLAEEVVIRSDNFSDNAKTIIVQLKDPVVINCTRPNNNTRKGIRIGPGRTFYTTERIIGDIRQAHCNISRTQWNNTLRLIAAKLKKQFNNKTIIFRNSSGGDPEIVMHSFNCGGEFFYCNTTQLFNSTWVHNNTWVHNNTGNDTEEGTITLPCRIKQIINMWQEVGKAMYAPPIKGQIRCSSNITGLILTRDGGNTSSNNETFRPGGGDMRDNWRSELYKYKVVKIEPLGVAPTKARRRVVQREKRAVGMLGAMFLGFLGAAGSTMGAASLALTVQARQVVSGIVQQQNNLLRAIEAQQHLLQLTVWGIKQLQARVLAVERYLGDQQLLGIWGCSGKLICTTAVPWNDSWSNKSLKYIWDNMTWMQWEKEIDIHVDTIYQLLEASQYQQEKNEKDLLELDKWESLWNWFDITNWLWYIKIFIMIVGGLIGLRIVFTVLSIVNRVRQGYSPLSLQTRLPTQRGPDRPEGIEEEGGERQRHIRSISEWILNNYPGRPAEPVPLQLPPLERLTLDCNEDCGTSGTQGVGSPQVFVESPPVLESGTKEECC

SMILES	IC50
COc1cc([N+](=O)[O-])cc(/C=C2/SC(=S)N(Cc3ccccc3)C2=O)c1O	32.6 µM (active)
CC(=O)Nc1sc(/C(C#N)=C/c2ccc(Cl)c(Cl)c2)nc1-c1ccc(C)cc1	2.04 µM (active)
O=C(O)c1ccc(N2C(=O)/C(=C/c3ccc(-c4ccc([N+](=O)[O-])cc4)o3)C=C2c2ccccc2)cc1	9.9 µM (active)
CCOC(=O)C1=C(C)N=c2s/c(=C\c3ccc(OCC(=O)O)cc3)c(=O)n2C1c1ccc(Cl)cc1 (centres undefined)	13.8 µM (active)
